Results: US9067977B2, “Peptides derivatized with A-B-C-D- and their therapeutical use” (Novo Nordisk A/S, priority 2007, dated 2015)
Starred links: 1 amine or outer side, 2 acyl side, 3 side chain; linkers in the order of their positions; H or OH if unused. Non-standard residues stand in square brackets, D forms with d. Residues, ends and D or L forms follow the SMILES beside them. Groups on a side chain read outwards from the residue. *: point of attachment. X1 = O=C(CCCCCCCCCCCCCCCc1nnn[nH]1)NS(=O)(=O)CCCC(=O)*; C20 diacid = O=C(O)CCCCCCCCCCCCCCCCCCC(=O)*; γGlu = O=C(O)[C@H](CCC(=O)[*:2])N[*:1]; 12Ado = NCCCCCCCCCCCC(=O)O; AEEA = NCCOCCOCC(=O)O; Aib = CC(C)(N)C(=O)O; Inp = O=C(O)C1CCNCC1

Target: human serum albumin (HSA) (Homo sapiens, UniProt P02768)
Experiment: Albumin binding affinity, competition scintillation proximity assay
Details: for EC50 at 20 h: human, biotinylated human serum albumin on streptavidin-SPA beads, pH 7.4
Experimental: Streptavidin-SPA beads (GE Healthcare RPNQ0009) were incubated with biotinylated HSA for 5 hours. The beads were washed with buffer to remove unbound HSA. […] After 20 hours of gentle rocking at room temperature the plates were centrifuged and counted on a TopCounter.

human serum albumin (HSA), sequence (P02768 25-609): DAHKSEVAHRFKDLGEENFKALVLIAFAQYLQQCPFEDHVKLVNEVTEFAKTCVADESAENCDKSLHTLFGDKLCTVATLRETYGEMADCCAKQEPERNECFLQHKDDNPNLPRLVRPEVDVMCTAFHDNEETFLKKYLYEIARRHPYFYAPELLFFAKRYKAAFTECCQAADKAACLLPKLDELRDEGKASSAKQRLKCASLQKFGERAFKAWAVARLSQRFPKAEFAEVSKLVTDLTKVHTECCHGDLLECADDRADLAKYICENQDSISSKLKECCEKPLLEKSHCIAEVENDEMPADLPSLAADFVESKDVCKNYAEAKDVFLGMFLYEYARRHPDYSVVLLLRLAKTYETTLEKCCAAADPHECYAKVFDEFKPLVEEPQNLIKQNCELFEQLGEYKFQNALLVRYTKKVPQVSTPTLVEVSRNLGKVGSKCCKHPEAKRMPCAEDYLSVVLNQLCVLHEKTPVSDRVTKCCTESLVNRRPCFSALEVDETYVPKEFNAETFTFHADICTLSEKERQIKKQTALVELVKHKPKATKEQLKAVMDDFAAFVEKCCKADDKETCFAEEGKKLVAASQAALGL

Row | SMILES | EC50 at 20 h | EC50
1 | CC[C@H](C)[C@H](NC(=O)[C@H](Cc1ccccc1)NC(=O)[C@H](CCC(=O)O)NC(=O)[C@H](CCCCNC(=O)COCCOCCNC(=O)CC[C@H](NC(=O)CC[C@H](NC(=O)CCCCCCCCCCCNC(=O)CCCS(=O)(=O)NC(=O)CCCCCCCCCCCCCCCc1nnn[nH]1)C(=O)O)C(=O)O)NC(=O)[C@H](C)NC(=O)[C@H](C)NC(=O)[C@H](CCC(N)=O)NC(=O)CNC(=O)[C@H](CCC(=O)O)NC(=O)[C@H](CC(C)C)NC(=O)[C@H](Cc1ccc(O)cc1)NC(=O)[C@H](CO)NC(=O)[C@H](CO)NC(=O)[C@@H](NC(=O)[C@H](CC(=O)O)NC(=O)[C@H](CO)NC(=O)[C@@H](NC(=O)[C@H](Cc1ccccc1)NC(=O)[C@@H](NC(=O)CNC(=O)[C@H](CCC(=O)O)NC(=O)C(C)(C)NC(=O)[C@@H](N)Cc1c[nH]cn1)[C@@H](C)O)[C@@H](C)O)C(C)C)C(=O)N[C@@H](C)C(=O)N[C@@H](Cc1c[nH]c2ccccc12)C(=O)N[C@@H](CC(C)C)C(=O)N[C@H](C(=O)N[C@@H](CCCNC(=N)N)C(=O)O)C(C)C [Example 37, N-epsilon26-[2-(2-{2-[(S)-4-Carboxy-4-((S)-4-carboxy-4-{12-[4-(16-(1H-tetrazol-5-yl)hexadecanoylsulfamoyl)butyrylamino]-dodecanoylamino}butyrylamino)butyrylamino]ethoxy}ethoxy)acetyl][Aib8,Arg34]GLP-1-(7-34)] | 1 to 100 nM | 
2 | CC[C@H](C)[C@H](NC(=O)[C@H](Cc1ccccc1)NC(=O)[C@H](CCC(=O)O)NC(=O)[C@H](CCCNC(=N)N)NC(=O)[C@H](C)NC(=O)[C@H](C)NC(=O)[C@H](CCC(N)=O)NC(=O)[C@H](CCC(=O)O)NC(=O)[C@H](CCC(=O)O)NC(=O)[C@H](CC(C)C)NC(=O)[C@H](Cc1ccc(O)cc1)NC(=O)[C@H](CO)NC(=O)[C@H](CO)NC(=O)[C@@H](NC(=O)[C@H](CC(=O)O)NC(=O)[C@H](CO)NC(=O)[C@@H](NC(=O)[C@H](Cc1ccccc1)NC(=O)[C@@H](NC(=O)CNC(=O)[C@H](CCC(=O)O)NC(=O)[C@H](C)NC(=O)CCc1c[nH]cn1)[C@@H](C)O)[C@@H](C)O)C(C)C)C(=O)N[C@@H](C)C(=O)N[C@@H](Cc1c[nH]c2ccccc12)C(=O)N[C@@H](CC(C)C)C(=O)N[C@H](C(=O)N[C@@H](CCCNC(=N)N)C(=O)NCC(=O)N[C@@H](CCCNC(=N)N)C(=O)N[C@@H](CCCCNC(=O)COCCOCCNC(=O)COCCOCCNC(=O)CC[C@H](NC(=O)[C@H]1CC[C@H](CNC(=O)CCCCCCCCCCCCCCCCCCC(=O)O)CC1)C(=O)O)C(N)=O)C(C)C [Example 24, N-epsilon37-[2-(2-{2-[2-(2-{2-[(S)-4-Carboxy-4-({trans-4-[(19-carboxy-nonadecanoylamino)methyl]cyclohexanecarbonyl}amino)butyrylamino]ethoxy}ethoxy)acetylamino]ethoxy}ethoxy)acetyl][DesaminoHis7,Glu22,Arg26,Arg34,Lys37]GLP-1-(7-37)amide] |  | 800 to 2000 nM
3 | CC[C@H](C)[C@H](NC(=O)[C@H](Cc1ccccc1)NC(=O)[C@H](CCC(=O)O)NC(=O)[C@H](CCCCNC(=O)COCCOCCNC(=O)COCCOCCNC(=O)CC[C@H](NC(=O)C1CCN(C(=O)CCCCCCCCCCCCCCCCCCC(=O)O)CC1)C(=O)O)NC(=O)[C@H](C)NC(=O)[C@H](C)NC(=O)[C@H](CCC(N)=O)NC(=O)[C@H](CCC(=O)O)NC(=O)[C@H](CCC(=O)O)NC(=O)[C@H](CC(C)C)NC(=O)[C@H](Cc1ccc(O)cc1)NC(=O)[C@H](CO)NC(=O)[C@H](CO)NC(=O)[C@@H](NC(=O)[C@H](CC(=O)O)NC(=O)[C@H](CO)NC(=O)[C@@H](NC(=O)[C@H](Cc1ccccc1)NC(=O)[C@@H](NC(=O)CNC(=O)[C@H](CCC(=O)O)NC(=O)C(C)(C)NC(=O)[C@@H](N)Cc1c[nH]cn1)[C@@H](C)O)[C@@H](C)O)C(C)C)C(=O)N[C@@H](C)C(=O)N[C@@H](Cc1c[nH]c2ccccc12)C(=O)N[C@@H](CC(C)C)C(=O)N[C@H](C(=O)N[C@@H](CCC(N)=O)C(=O)NCC(=O)N[C@@H](CCCNC(=N)N)C(=O)NCC(=O)O)C(C)C [Example 69] (H-H[Aib]EGTFTSDVSSYLEEQAAK([AEEA-AEEA-γGlu-Inp-C20 diacid])EFIAWLVQGRG-OH) |  | 100 to 150 nM
4 | CC[C@H](C)[C@H](NC(=O)[C@H](Cc1ccccc1)NC(=O)[C@H](CCC(=O)O)NC(=O)[C@H](CCCNC(=N)N)NC(=O)[C@H](C)NC(=O)[C@H](C)NC(=O)[C@H](CCC(N)=O)NC(=O)C(C)(C)NC(=O)[C@H](CCC(=O)O)NC(=O)[C@H](CC(C)C)NC(=O)[C@H](Cc1ccc(O)cc1)NC(=O)[C@H](CCCCNC(=O)COCCOCCNC(=O)COCCOCCNC(=O)CC[C@H](NC(=O)C1CCN(C(=O)CCCCCCCCCCCCCCCCCCC(=O)O)CC1)C(=O)O)NC(=O)[C@H](CO)NC(=O)[C@@H](NC(=O)[C@H](CC(=O)O)NC(=O)[C@H](CO)NC(=O)[C@@H](NC(=O)[C@H](Cc1ccccc1)NC(=O)[C@@H](NC(=O)CNC(=O)[C@H](CCC(=O)O)NC(=O)C(C)(C)NC(=O)[C@@H](N)Cc1c[nH]cn1)[C@@H](C)O)[C@@H](C)O)C(C)C)C(=O)N[C@@H](C)C(=O)N[C@@H](Cc1c[nH]c2ccccc12)C(=O)N[C@@H](CC(C)C)C(=O)N[C@H](C(=O)N[C@@H](CCCNC(=N)N)C(=O)NC(C)(C)C(=O)N[C@@H](CCCNC(=N)N)C(=O)NCC(=O)O)C(C)C [Example 70] (H-H[Aib]EGTFTSDVSK([AEEA-AEEA-γGlu-Inp-C20 diacid])YLE[Aib]QAAREFIAWLVR[Aib]RG-OH) | 800 to 2000 nM | 
5 | CC[C@H](C)[C@H](NC(=O)[C@H](Cc1ccccc1)NC(=O)[C@H](CCC(=O)O)NC(=O)[C@H](CCCCNC(=O)COCCOCCNC(=O)CC[C@H](NC(=O)CC[C@H](NC(=O)CCCNC(=O)CCCS(=O)(=O)NC(=O)CCCCCCCCCCCCCCCc1nnn[nH]1)C(=O)O)C(=O)O)NC(=O)[C@H](C)NC(=O)[C@H](C)NC(=O)[C@H](CCC(N)=O)NC(=O)CNC(=O)[C@H](CCC(=O)O)NC(=O)[C@H](CC(C)C)NC(=O)[C@H](Cc1ccc(O)cc1)NC(=O)[C@H](CO)NC(=O)[C@H](CO)NC(=O)[C@@H](NC(=O)[C@H](CC(=O)O)NC(=O)[C@H](CO)NC(=O)[C@@H](NC(=O)[C@H](Cc1ccccc1)NC(=O)[C@@H](NC(=O)CNC(=O)[C@H](CCC(=O)O)NC(=O)C(C)(C)NC(=O)[C@@H](N)Cc1c[nH]cn1)[C@@H](C)O)[C@@H](C)O)C(C)C)C(=O)N[C@@H](C)C(=O)N[C@@H](Cc1c[nH]c2ccccc12)C(=O)N[C@@H](CC(C)C)C(=O)N[C@H](C(=O)N[C@@H](CCCNC(=N)N)C(=O)O)C(C)C [Example 36, N-epsilon26-[2-(2-{2-[(S)-4-Carboxy-4-((S)-4-carboxy-4-{4-[4-(16-(1H-tetrazol-5-yl)hexadecanoylsulfamoyl)butyrylamino]butyrylamino}butyrylamino)butyrylamino]ethoxy}ethoxy)acetyl][Aib8,Arg34]GLP-1-(7-34)] | 100 to 150 nM | 
6 | CC[C@H](C)[C@H](NC(=O)[C@H](Cc1ccccc1)NC(=O)[C@H](CCC(=O)O)NC(=O)[C@H](CCCNC(=N)N)NC(=O)[C@H](C)NC(=O)[C@H](C)NC(=O)[C@H](CCC(N)=O)NC(=O)[C@H](CCC(=O)O)NC(=O)[C@H](CCC(=O)O)NC(=O)[C@H](CC(C)C)NC(=O)[C@H](Cc1ccc(O)cc1)NC(=O)[C@H](CO)NC(=O)[C@H](CO)NC(=O)[C@@H](NC(=O)[C@H](CC(=O)O)NC(=O)[C@H](CO)NC(=O)[C@@H](NC(=O)[C@H](Cc1ccccc1)NC(=O)[C@@H](NC(=O)CNC(=O)[C@H](CCC(=O)O)NC(=O)C(C)(C)NC(=O)[C@@H](N)Cc1c[nH]cn1)[C@@H](C)O)[C@@H](C)O)C(C)C)C(=O)N[C@@H](CCCCNC(=O)COCCOCCNC(=O)COCCOCCNC(=O)C[C@H](NC(=O)C1CCN(C(=O)CCCCCCCCCCCCCCCCCCC(=O)O)CC1)C(=O)O)C(=O)N[C@@H](Cc1c[nH]c2ccccc12)C(=O)N[C@@H](CC(C)C)C(=O)N[C@H](C(=O)N[C@@H](CCCCN)C(=O)NCC(=O)N[C@@H](CCCNC(=N)N)C(=O)NCC(=O)O)C(C)C [Example 9, N-epsilon30{2-[2-(2-{2-[2-((S)-3-carboxy-3-{[1-(19-carboxynonadecanoyl)piperidine-4-carbonyl]amino}propionylamino)ethoxy]ethoxy}acetylamino)ethoxy]ethoxy}acetyl [Aib8,Glu22,Arg26,Lys30]GLP-1-(7-37)] |  | 150 to 300 nM
7 | CC[C@H](C)[C@H](NC(=O)[C@H](Cc1ccccc1)NC(=O)[C@H](CCC(=O)O)NC(=O)[C@H](CCCNC(=N)N)NC(=O)[C@H](C)NC(=O)[C@H](C)NC(=O)[C@H](CCC(N)=O)NC(=O)[C@H](CCC(=O)O)NC(=O)[C@H](CCC(=O)O)NC(=O)[C@H](CC(C)C)NC(=O)[C@H](Cc1ccc(O)cc1)NC(=O)[C@H](CO)NC(=O)[C@H](CO)NC(=O)[C@@H](NC(=O)[C@H](CC(=O)O)NC(=O)[C@H](CO)NC(=O)[C@@H](NC(=O)[C@H](Cc1ccccc1)NC(=O)[C@@H](NC(=O)CNC(=O)[C@H](CCC(=O)O)NC(=O)C(C)(C)NC(=O)[C@@H](N)Cc1c[nH]cn1)[C@@H](C)O)[C@@H](C)O)C(C)C)C(=O)N[C@@H](C)C(=O)N[C@@H](Cc1c[nH]c2ccccc12)C(=O)N[C@@H](CC(C)C)C(=O)N[C@H](C(=O)N[C@@H](CCCNC(=N)N)C(=O)NCC(=O)N[C@@H](CCCNC(=N)N)C(=O)NCC(=O)N[C@@H](CCCCNC(=O)COCCOCCNC(=O)CC[C@H](NC(=O)CC[C@H](NC(=O)CCCCCCCCCCCNC(=O)CCCS(=O)(=O)NC(=O)CCCCCCCCCCCCCCCc1nnn[nH]1)C(=O)O)C(=O)O)C(N)=O)C(C)C [Example 46, [Aib8,Glu22,Arg26,Arg34]GLP-1-(7-37)Lys[2-(2-{2-[(S)-4-Carboxy-4-((S)-4-carboxy-4-{12-[4-(16-(1H-tetrazol-5-yl)hexadecanoylsulfamoyl)butyrylamino]dodecanoylamino}-butyrylamino)butyrylamino]ethoxy}ethoxy)acetyl]amide] (H-H[Aib]EGTFTSDVSSYLEEQAAREFIAWLVRGRGK([AEEA-γGlu-γGlu-12Ado-X1])-NH2) |  | 1 to 100 nM
